Assay results as given in patent US10308595B2, “Albicidin derivatives, their use and synthesis” (priority 2013, dated 2019).
Read-outs that look alike come from different tables or passages of the source.

What was measured:
Assay in all cases: Test agar plates (disc diffusion), diameter of inhibition area
Assay type in all cases: cell-based
[1] = system: Micrococcus luteus DSM1790; settings: Micrococcus luteus, DSM1790, 18 h, read-out: diameter of inhibition, Micrococcus luteus DSM1790
Protocol: (§1) The dry compounds were dissolved in DMSO (1 mg/ml) and the so obtained stock solution was diluted with sterilized Millipore water 1:10 and 1:100
(§2) 20 μl of cryo stock of each strain were inoculated to 20 ml of Mueller-Hinton medium and grown overnight at 30° C. or 37° C. on a vertical shaker with 160 rpm. The inoculum for the test was adjusted by the 0.5 McFarland Standard (OD625 from 0.08 to 0.1)
Micrococcus luteus DSM1790 [gram. Pos.] Medium: MHB/37° C.
(§3) Every plate is prepared by pouring 10 ml Mueller-Hinton agar into standard petri dishes (diam 94 mm). The so obtained Mueller-Hinton plates are overlayed with 4 ml Mueller-Hinton soft agar containing 100 μl suspension of the test strain.
(§4) After the soft agar turned solid, sterile susceptibility test discs were circular placed on the agar and on every test disc 10 μl compound was added. Each concentration is tested in triplicate. The agar dishes were incubated for 18 hours at a temperature of 30° C. or 37° C. Results are obtained by measuring the diameter of inhibition area around each test disc.

[2] = system: Escherichia coli albi-res (Montpellier); settings: 18 h, read-out: diameter of inhibition, Escherichia coli albi-res (Montpellier)
Protocol: as §1, §2
Escherichia coli albi-res (Montpellier) [gram. Neg.] Medium: MHB/37° C.
as §3, §4

Bacillus subtilis DSM10 = settings: Bacillus subtilis, DSM10, 18 h, read-out: diameter of inhibition, Bacillus subtilis DSM10
Protocol: as §1, §2
Bacillus subtilis DSM10 [gram. Pos.] Medium: MHB/30° C.
as §3, §4

[3] = system: Staphylococcus aureus DSM 2569; settings: DSM2569, 18 h, test agar plates, active substance 1 mg/ml, "more than 1 cm and more than 2 cm" [sic], read-out: diameter of inhibition, Staphylococcus aureus DSM 2569
Protocol: as §1, §2
Staphylococcus aureus DSM 2569 [gram. Pos.] Medium: MHB/37° C.
as §3, §4

Escherichia coli DH5α = settings: 18 h, read-out: diameter of inhibition, Escherichia coli DH5α
Protocol: as §1, §2
Escherichia coli DH5α [gram. Neg.] Medium: MHB/37° C.
as §3, §4

[4] = system: Pseudomonas aeruginosa DSM1117; settings: DSM1117, 18 h, read-out: diameter of inhibition, Pseudomonas aeruginosa DSM1117
Protocol: as §1, §2
Pseudomonas aeruginosa DSM1117 [gram. Neg.] Medium: MHB/37° C.
as §3, §4

[5] = test agar plates, active substance 1 mg/ml, "more than 1 cm and more than 2 cm" [sic]
[6] = test agar plates, active substance 1 mg/ml, more than 1 cm or more than 2 cm
[7] = test agar plates, active substance 1 mg/ml, more than 1 cm or more than 3.9 cm [sic]

Measured: zone of inhibition at 1000 µg/mL

COc1c(NC(=O)c2ccc(NC(=O)c3ccc(NC(=O)C(CC#N)NC(=O)c4ccc(NC(=O)/C(C)=C/c5ccccc5)cc4)cc3)c(OC)c2O)ccc(C(=O)O)c1O (stereo not drawn) [Compound 2]
> 10 mm: [1]; [5] | [2]; [6] | Bacillus subtilis DSM10; [7] | [3] | Escherichia coli DH5α; [6] | [4]; [6]

COc1c(NC(=O)c2ccc(NC(=O)c3ccc(NC(=O)C(CC#N)NC(=O)c4ccc(NC(=O)/C=C/c5ccccc5)cc4)cc3)c(OC)c2O)ccc(C(=O)O)c1O (stereo not drawn) [Compound 3]
> 10 mm: [1]; [5] | [2]; [6] | Bacillus subtilis DSM10; [7] | [3] | Escherichia coli DH5α; [6] | [4]; [6]

COc1c(NC(=O)c2ccc(NC(=O)c3ccc(NC(=O)C(CC#N)NC(=O)c4ccc(NC(=O)/C(C)=C/c5ccc(C(F)(F)F)cc5)cc4)cc3)c(OC)c2O)ccc(C(=O)O)c1O (stereo not drawn) [Compound 4]
> 10 mm: [1]; [5] | [2]; [6] | Bacillus subtilis DSM10; [7] | [3] | Escherichia coli DH5α; [6] | [4]; [6]

COc1c(NC(=O)c2ccc(NC(=O)c3ccc(NC(=O)C(CC#N)NC(=O)c4ccc(NC(=O)c5ccc(O)cc5)cc4)cc3)c(OC)c2O)ccc(C(=O)O)c1O (stereo not drawn) [Compound 7]
> 10 mm: [2]; [6] | Bacillus subtilis DSM10; [7] | [3] | [4]; [6]

COc1c(NC(=O)c2ccc(NC(=O)c3ccc(NC(=O)C(CC#N)NC(=O)c4ccc(NC(=O)c5ccc(N6CCOCC6)cc5)cc4)cc3)c(OC)c2O)ccc(C(=O)O)c1O (stereo not drawn) [Compound 8]
> 10 mm: [2]; [6] | Bacillus subtilis DSM10; [7] | [3] | Escherichia coli DH5α; [6]

COc1c(NC(=O)c2ccc(NC(=O)c3ccc(NC(=O)C(CC#N)NC(=O)c4ccc(NC(=O)c5ccc(-c6ccccc6)cc5)cc4)cc3)c(OC)c2O)ccc(C(=O)O)c1O (stereo not drawn) [Compound 9]
> 10 mm: [1]; [5] | [2]; [6] | Bacillus subtilis DSM10; [7] | [3] | Escherichia coli DH5α; [6]

COc1ccc(C(=O)Nc2ccc(C(=O)NC(CC#N)C(=O)Nc3ccc(C(=O)Nc4ccc(C(=O)Nc5ccc(C(=O)O)c(O)c5OC)c(O)c4OC)cc3)cc2)cc1 (stereo not drawn) [Compound 10]
> 10 mm: [1]; [5] | [2]; [6] | Bacillus subtilis DSM10; [7] | [3] | Escherichia coli DH5α; [6] | [4]; [6]

COc1c(NC(=O)c2ccc(NC(=O)c3ccc(NC(=O)C(CC#N)NC(=O)c4ccc(NC(=O)c5ccc(C#N)cc5)cc4)cc3)c(OC)c2O)ccc(C(=O)O)c1O (stereo not drawn) [Compound 11]
> 10 mm: [1]; [5] | [2]; [6] | Bacillus subtilis DSM10; [7] | [3] | Escherichia coli DH5α; [6] | [4]; [6]

COc1c(NC(=O)c2ccc(NC(=O)c3ccc(NC(=O)C(CC#N)NC(=O)c4ccc(NC(=O)c5cccc(C(F)(F)F)c5)cc4)cc3)c(OC)c2O)ccc(C(=O)O)c1O (stereo not drawn) [Compound 12]
> 10 mm: [1]; [5] | [2]; [6] | Bacillus subtilis DSM10; [7] | [3] | Escherichia coli DH5α; [6] | [4]; [6]

COc1c(NC(=O)c2ccc(NC(=O)c3ccc(NC(=O)C(CC#N)NC(=O)c4ccc(NC(=O)c5cccc(-c6ccccc6)c5)cc4)cc3)c(OC)c2O)ccc(C(=O)O)c1O (stereo not drawn) [Compound 13]
> 10 mm: [1]; [5] | [2]; [6] | Bacillus subtilis DSM10; [7] | Escherichia coli DH5α; [6] | [4]; [6]

COc1c(NC(=O)c2ccc(NC(=O)c3ccc(NC(=O)C(CC#N)NC(=O)c4ccc(NC(=O)c5ccc[nH]5)cc4)cc3)c(OC)c2O)ccc(C(=O)O)c1O (stereo not drawn) [Compound 14]
> 10 mm: [2]; [6] | Bacillus subtilis DSM10; [7]

COc1c(NC(=O)c2ccc(NC(=O)c3ccc(NC(=O)C(CC#N)NC(=O)c4ccc(NC(=O)c5ccco5)cc4)cc3)c(OC)c2O)ccc(C(=O)O)c1O (stereo not drawn) [Compound 15]
> 10 mm: [2]; [6] | Bacillus subtilis DSM10; [7] | [3]

COc1c(NC(=O)c2ccc(NC(=O)c3ccc(NC(=O)C(CC#N)NC(=O)c4ccc(NC(=O)Cc5ccc(Cl)cc5)cc4)cc3)c(OC)c2O)ccc(C(=O)O)c1O (stereo not drawn) [Compound 26]
> 10 mm: [2] | Bacillus subtilis DSM10; [7] | [4]; [6]

COc1c(NC(=O)c2ccc(NC(=O)c3ccc(NC(=O)C(CC#N)NC(=O)c4ccc(NC(=O)CCc5ccccn5)cc4)cc3)c(OC)c2O)ccc(C(=O)O)c1O (stereo not drawn) [Compound 29]
> 10 mm: [2] | Bacillus subtilis DSM10; [7] | [4]; [6]

CCCCCC(=O)Nc1ccc(C(=O)NC(CC#N)C(=O)Nc2ccc(C(=O)Nc3ccc(C(=O)Nc4ccc(C(=O)O)c(O)c4OC)c(O)c3OC)cc2)cc1 (stereo not drawn) [Compound 34]
> 10 mm: [2] | Bacillus subtilis DSM10; [7] | [3] | Escherichia coli DH5α; [6] | [4]; [6]

COc1c(NC(=O)c2ccc(NC(=O)c3ccc(NC(=O)C(CC#N)NC(=O)c4ccc(NC(=O)C5CC5)cc4)cc3)c(OC)c2O)ccc(C(=O)O)c1O (stereo not drawn) [Compound 38]
> 10 mm: [2]; [6] | Bacillus subtilis DSM10; [7]

CCC(CC)C(=O)Nc1ccc(C(=O)NC(CC#N)C(=O)Nc2ccc(C(=O)Nc3ccc(C(=O)Nc4ccc(C(=O)O)c(O)c4OC)c(O)c3OC)cc2)cc1 (stereo not drawn) [Compound 39]
> 10 mm: [2]; [6] | Bacillus subtilis DSM10; [7]

COc1c(NC(=O)c2ccc(NC(=O)c3ccc(NC(=O)C(CC#N)NC(=O)c4ccc(NC(=O)C(C)(C)C)cc4)cc3)c(OC)c2O)ccc(C(=O)O)c1O (stereo not drawn) [Compound 40]
> 10 mm: [2]; [6] | Bacillus subtilis DSM10; [7]

COc1c(NC(=O)c2ccc(NC(=O)c3ccc(NC(=O)C(CC#N)NC(=O)c4ccc(NC(=O)C5CCCC5)cc4)cc3)c(OC)c2O)ccc(C(=O)O)c1O (stereo not drawn) [Compound 41]
> 10 mm: [2]; [6] | Bacillus subtilis DSM10; [7]

COc1c(NC(=O)c2ccc(NC(=O)c3ccc(NC(=O)C(CC#N)NC(=O)c4ccc(NCc5ccc(-c6ccccc6)cc5)cc4)cc3)c(OC)c2O)ccc(C(=O)O)c1O (stereo not drawn) [Compound 44]
> 10 mm: [1] | [2] | Bacillus subtilis DSM10 | Escherichia coli DH5α | [4]

COc1ccc(S(=O)(=O)Nc2ccc(C(=O)NC(CC#N)C(=O)Nc3ccc(C(=O)Nc4ccc(C(=O)Nc5ccc(C(=O)O)c(O)c5OC)c(O)c4OC)cc3)cc2)cc1 (stereo not drawn) [Compound 49]
> 10 mm: [2]
